Measurements: US7507816B2, “Pharmaceutical preparations comprising substituted beta-aminoalcohols” (Gruenenthal GmbH, priority 2001, dated 2009)

Target: T1, NA transporter (Rattus norvegicus, UniProt Q9WTR4)
T1 construct: synaptosomes were freshly isolated from rat brain regions; from tissue; host or cells: rat hypothalamus synaptosomes (P2 fraction)
Experiment: Noradrenaline reuptake inhibition (NA uptake inhibition) in rat brain synaptosomes
Format: biochemical
Details: test concentration of 10^−5 M; synaptosomes (P2 fraction) from the hypothalamus of male rat brains
Protocol: Investigations Relating to Noradrenaline Reuptake Inhibition (NA Uptake Inhibition)
The compounds according to the invention are NA uptake inhibitors. In order to be able to carry out these in vitro studies, synaptosomes were freshly isolated from rat brain regions. A so-called “P2” fraction was used, which was prepared according to the instructions given by Gray and Whittaker (E. G. Gray and V. P. Whittaker (1962) J. Anat. 76, 79-88). For NA uptake, these vesicular particles were isolated from the hypothalamus of male rat brains.
The following characteristics were determined for the NA transporter: NA uptake: Km=0.32±0.11 μM (In each case N=4, i.e. means±SEM from 4 independent series of tests, which were performed as parallel tests in triplicate).
A detailed description of the method may be found in the literature (M. Ch. Frink, H.-H. Hennies, W. Englberger, M. Haurand and B. Wilffert (1996) Arzneim.-Forsch./Drug Res. 46 (III), 11, 1029-1036). The NA uptake inhibition of selected compounds was determined. The values were determined at a test concentration of 10^−5 M.

T1 sequence (Q9WTR4 1-597): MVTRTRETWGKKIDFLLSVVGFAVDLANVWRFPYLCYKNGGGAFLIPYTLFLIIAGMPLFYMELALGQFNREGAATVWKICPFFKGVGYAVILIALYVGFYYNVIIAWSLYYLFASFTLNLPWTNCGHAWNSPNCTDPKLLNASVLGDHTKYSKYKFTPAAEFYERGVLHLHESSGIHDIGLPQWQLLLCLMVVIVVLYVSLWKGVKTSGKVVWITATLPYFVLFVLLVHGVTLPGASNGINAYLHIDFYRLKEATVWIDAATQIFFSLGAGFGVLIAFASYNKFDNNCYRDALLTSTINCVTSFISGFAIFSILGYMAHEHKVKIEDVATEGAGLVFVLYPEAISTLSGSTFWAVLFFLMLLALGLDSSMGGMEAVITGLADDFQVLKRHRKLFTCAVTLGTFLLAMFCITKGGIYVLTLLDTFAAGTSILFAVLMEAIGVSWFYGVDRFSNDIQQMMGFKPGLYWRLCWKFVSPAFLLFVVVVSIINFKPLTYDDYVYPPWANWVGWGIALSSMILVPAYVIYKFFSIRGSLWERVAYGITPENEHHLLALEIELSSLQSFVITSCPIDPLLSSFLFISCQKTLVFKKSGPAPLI

Point of comparison: `Cc1ccc(C2(O)CCCCC2CN2CCCC2)cc1` (stereo not shown) [2-Pyrrolidin-1-ylmethyl-1-p-tolyl-cyclohexanol], inhibition at 10 µM 59%. Against it:
- OC1(c2cccc(Cl)c2Cl)CCCCCC1CN1CCCC1 (stereo not shown) [1-(2,3-Dichloro-phenyl)-2-pyrrolidin-1-ylmethyl-cycloheptanol] — higher, 63%
- OC1(c2cccc(Cl)c2Cl)CCCCC1CN1CCCC1 (stereo not shown) [1-(2,3-Dichloro-phenyl)-2-pyrrolidin-1-ylmethyl-cyclohexanol] — higher, 60%
- OC1(c2cccc(Cl)c2Cl)CCCC1CN1CCCC1 (stereo not shown) [1-(2,3-Dichloro-phenyl)-2-pyrrolidin-1-ylmethyl-cyclopentanol] — lower, 53%
- OC1(c2ccc(Cl)cc2Cl)CCCCCC1CN1CCCC1 (stereo not shown) [1-(2,4-Dichloro-phenyl)-2-pyrrolidin-1-ylmethyl-cycloheptanol] — lower, 55%
- OC1(CCCc2ccccc2)CCCCCC1CN1CCCC1 (stereo not shown) [1-(3-Phenyl-propyl)-2-pyrrolidin-1-ylmethyl-cycloheptanol] — higher, 63%
- OC1(CCCc2ccccc2)CCCC1CN1CCCC1 (stereo not shown) [1-(3-Phenyl-propyl)-2-pyrrolidin-1-ylmethyl-cyclopentanol] — higher, 65%
- OC1(c2ccc(Cl)cc2)CCCC1CN1CCCC1 (stereo not shown) [1-(4-Chloro-phenyl)-2-pyrrolidin-1-ylmethyl-cyclopentanol] — higher, 75%
- Cc1cc(C2(O)CCCCCC2CN2CCCC2)ccc1F (stereo not shown) [1-(4-Fluoro-3-methyl-phenyl)-2-pyrrolidin-1-ylmethyl-cycloheptanol] — higher, 83%
- Cc1cc(C2(O)CCCC2CN2CCCC2)ccc1F (stereo not shown) [1-(4-Fluoro-3-methyl-phenyl)-2-pyrrolidin-1-ylmethyl-cyclopentanol] — the same, 59%
- OC1(c2ccc(F)cc2)CCCCCC1CN1CCCC1 (stereo not shown) [1-(4-Fluoro-phenyl)-2-pyrrolidin-1-ylmethyl-cycloheptanol] — lower, 57%
- COc1ccc(C2(O)CCCCCC2CN2CCCC2)cc1 (stereo not shown) [1-(4-Methoxy-phenyl)-2-pyrrolidin-1-ylmethyl-cycloheptanol] — higher, 69%
- OC1(CCc2ccccc2)CCCCCC1CN1CCCC1 (stereo not shown) [1-Phenethyl-2-pyrrolidin-1-ylmethyl-cycloheptanol] — higher, 82%
- OC1(CCc2ccccc2)CCCC1CN1CCCC1 (stereo not shown) [1-Phenethyl-2-pyrrolidin-1-ylmethyl-cyclopentanol] — the same, 59%
- OC1(c2ccccc2)CCCCCC1CN1CCCC1 (stereo not shown) [1-Phenyl-2-pyrrolidin-1-ylmethyl-cycloheptanol] — lower, 56%
- OC1(CCCc2ccccc2)CCCCC1CN1CCCCCC1 (stereo not shown) [2-Azepan-1-ylmethyl-1-(3-phenyl-propyl)-cyclohexanol] — higher, 77%
- OC1(CCCc2ccccc2)CCCC1CN1CCCCCC1 (stereo not shown) [2-Azepan-1-ylmethyl-1-(3-phenyl-propyl)-cyclopentanol] — the same, 59%
- OC1(c2ccc(Cl)cc2)CCCC1CN1CCCCCC1 (stereo not shown) [2-Azepan-1-ylmethyl-1-(4-chloro-phenyl)-cyclopentanol] — higher, 80%
- Cc1cc(C2(O)CCCCCC2CN2CCCCCC2)ccc1F (stereo not shown) [2-Azepan-1-ylmethyl-1-(4-fluoro-3-methyl-phenyl)-cycloheptanol] — higher, 63%
- Cc1cc(C2(O)CCCCC2CN2CCCCCC2)ccc1F (stereo not shown) [2-Azepan-1-ylmethyl-1-(4-fluoro-3-methyl-phenyl)-cyclohexanol] — lower, 54%
- Cc1cc(C2(O)CCCC2CN2CCCCCC2)ccc1F (stereo not shown) [2-Azepan-1-ylmethyl-1-(4-fluoro-3-methyl-phenyl)-cyclopentanol] — higher, 73%
- OC1(c2ccc(F)cc2)CCCCC1CN1CCCCCC1 (stereo not shown) [2-Azepan-1-ylmethyl-1-(4-fluoro-phenyl)-cyclohexanol] — lower, 52%
- COc1ccc(C2(O)CCCCCC2CN2CCCCCC2)cc1 (stereo not shown) [2-Azepan-1-ylmethyl-1-(4-methoxy-phenyl)-cycloheptanol] — lower, 58%
- COc1ccc(C2(O)CCCCC2CN2CCCCCC2)cc1 (stereo not shown) [2-Azepan-1-ylmethyl-1-(4-methoxy-phenyl)-cyclohexanol] — lower, 58%
- COc1ccc(C2(O)CCCC2CN2CCCCCC2)cc1 (stereo not shown) [2-Azepan-1-ylmethyl-1-(4-methoxy-phenyl)-cyclopentanol] — lower, 58%
- OC1(Cc2ccccc2)CCCCCC1CN1CCCCCC1 (stereo not shown) [2-Azepan-1-ylmethyl-1-benzyl-cycloheptanol] — lower, 55%
- Cc1cccc(C2(O)CCCC2CN2CCCCCC2)c1 (stereo not shown) [2-Azepan-1-ylmethyl-1-m-tolyl-cyclopentanol] — the same, 59%
- Cc1ccc(C2(O)CCCCCC2CN2CCCCCC2)cc1 (stereo not shown) [2-Azepan-1-ylmethyl-1-p-tolyl-cycloheptanol] — lower, 58%
- Cc1ccc(C2(O)CCCCC2CN2CCCCCC2)cc1 (stereo not shown) [2-Azepan-1-ylmethyl-1-p-tolyl-cyclohexanol] — higher, 64%
- Cc1ccc(C2(O)CCCC2CN2CCCCCC2)cc1 (stereo not shown) [2-Azepan-1-ylmethyl-1-p-tolyl-cyclopentanol] — higher, 70%
- OC1(CCc2ccccc2)CCCCCC1CN1CCCCCC1 (stereo not shown) [2-Azepan-1-ylmethyl-1-phenethyl-cycloheptanol] — higher, 87%
- OC1(CCc2ccccc2)CCCCC1CN1CCCCCC1 (stereo not shown) [2-Azepan-1-ylmethyl-1-phenethyl-cyclohexanol] — higher, 70%
- OC1(CCc2ccccc2)CCCC1CN1CCCCCC1 (stereo not shown) [2-Azepan-1-ylmethyl-1-phenethyl-cyclopentanol] — higher, 92%
- OC1(c2ccccc2)CCCCCC1CN1CCCCCC1 (stereo not shown) [2-Azepan-1-ylmethyl-1-phenyl-cycloheptanol] — lower, 52%
- OC1(c2cccs2)CCCC1CN1CCCCCC1 (stereo not shown) [2-Azepan-1-ylmethyl-1-thiophen-2-yl-cyclopentanol] — lower, 51%
- Cc1cccc(C2(O)CCCCCC2CN2CCCC2)c1 (stereo not shown) [2-Pyrrolidin-1-ylmethyl-1-m-tolyl-cycloheptanol] — higher, 67%
- Cc1cccc(C2(O)CCCC2CN2CCCC2)c1 (stereo not shown) [2-Pyrrolidin-1-ylmethyl-1-m-tolyl-cyclopentanol] — lower, 52%
- Cc1ccc(C2(O)CCCCCC2CN2CCCC2)cc1 (stereo not shown) [2-Pyrrolidin-1-ylmethyl-1-p-tolyl-cycloheptanol] — higher, 76%
- Cc1ccc(C2(O)CCCC2CN2CCCC2)cc1 (stereo not shown) [2-Pyrrolidin-1-ylmethyl-1-p-tolyl-cyclopentanol] — higher, 78%
- CCC(O)(C#Cc1ccccc1)C(C)CN1CCCC1 (stereo not shown) [3-Ethyl-4-methyl-1-phenyl-5-pyrrolidin-1-yl-pent-1-yn-3-ol] — higher, 76%

Point of comparison: `OC1(C#Cc2ccccc2)CCCC1CN1CCCC1` (stereo not shown) [1-Phenylethynyl-2-pyrrolidin-1-ylmethyl-cyclopentanol], “NA Uptake (% inhibition)” value 92%. Against it:
- OC1(c2ccc(Cl)cc2)CCCC1CN1CCCC1 (stereo not shown) [1-(4-Chloro-phenyl)-2-pyrrolidin-1-ylmethyl-cyclopentanol] — lower, 68%
- OC1(C#Cc2ccccc2)CCCC1CN1CCCCCC1 (stereo not shown) [2-Azepan-1-ylmethyl-1-phenylethynyl-cyclopentanol] — higher, 99%
